{"source": "paper PMC12045974", "about": "“T cell toxicity induced by tigecycline binding to the mitochondrial ribosome” (Nature Communications, 2025)", "key": {"[1]": {"system": "mitochondrial translation in CD4+ and CD8+ T cells", "experiment": "Mito-FUNCAT-FACS assay of mitochondrial translation on activated T cells", "assay_type": "cell-based, human", "details": "per PBMC donor, listed as Pos ctrl", "procedure": "Thawed PBMCs were washed with RPMI ( + 10% FBS, 2.05 mM L-glutamine (Sigma), and 55 μM 2-ME (Gibco)) before resting at 37 °C (5% CO2) for 30 min. After counting, cells were resuspended in FACS buffer at a density of 5 × 10^7 cells/ml. T cells were isolated using EasySep™ Human T Cell Isolation Kit (Stemcell Technologies). Purified T cells were counted and 85,000 cells per well seeded onto 96-well U-bottom plates with/without Human T-Activator CD3/CD28 beads (Invitrogen) at a 1:2.8 cell:bead ratio and 10 ng/ml IL-2 (Proteintech) in RPMI-1640 ( + 10% FBS, 2.05 mM L-glutamine (Sigma), and 55 μM 2-ME (Gibco)) for 48 h. To assess mitochondrial translation, activated T cells were washed twice with methionine/cysteine/pyruvate-free DMEM and incubated in methionine-depletion medium (DMEM supplemented with 10% dialyzed FBS, 1× GlutaMAX, 1× sodium pyruvate, and 0.2 mM L-cystine) for 30 min at 37 °C. To inhibit cytosolic translation, anisomycin (100 μg/mL) was added to the medium. For mitochondrial translation inhibition, 100 µg/mL chloramphenicol (309 μM, positive control) or tigecycline (2.5−10 μM) were added to the medium. Cells were then labeled with 50 μM L-homopropargylglycine (HPG) for 3 h at 37 °C, during which time the medium still contained antibiotics.\nFollowing HPG labeling, cells were collected and stained with surface markers (CD4, CD8). Cells were pre-permeabilized with 0.005% digitonin in mitochondria-protective buffer (10 mM HEPES/KOH, 10 mM NaCl, 5 mM MgCl2, 300 mM sucrose, pH 7.5) for 3 min, fixed with 4% paraformaldehyde for 10 min, and fully permeabilized with 0.25% Triton X-100 for 5 min. After blocking with 5% BSA for 10 min, incorporated HPG was detected via copper-catalyzed cycloaddition using 0.05 μM Alexa Fluor 488 picolyl azide (Click-iT™ Plus Alexa Fluor™ 488 Picolyl Azide Toolkit, Gibco) for 30 min at room temperature. Subsequently, the reaction cocktail was removed and cells resuspended in FACS buffer. Flow cytometry was carried out on a BD Celesta (BD Biosciences) and analyzed in FlowJo (TreeStar). Data are presented as fold change relative to negative controls."}, "HeLa cells": {"system": "HeLa cells", "experiment": "Cell viability assay (CCK-8), HeLa cells", "assay_type": "cell-based", "details": "for cell vialibity normalized to Vehicle (DMSO): in % (unit assumed)", "procedure": "(§1) Cells were seeded in 96-well plates ranging from 2000 to 15,000 cells per well depending on different cell lines and treated with antibiotics in serial dilutions for 72 h (120 h for the preliminary assays) in a humidified incubator (37 °C, 5% CO2) in 100 μl medium (DMEM with 10% FBS, 2.05 mM L-glutamine (Sigma) for Hek293 and Hela; RPMI-1640 with 10% FBS, 2.05 mM L-glutamine (Sigma), and 55 μM 2-ME (Gibco) for Jurkat T cells and PBMCs). Based on preliminary tests, the number of cells per well was optimized to 2000 for Hela and Hek293, 6000 for Jurkat T cells, and 15,000 for PBMCs. The stocks of antibiotics were prepared by dissolving in DMSO. As control, the same amount of DMSO was added to the non-treated groups. Serial drug dilutions were prepared in the corresponding medium to provide a total of 9 concentrations up to 300 μM for tetracyclines and up to 900 μM for additional bacterial protein synthesis inhibitors. After drug treatment, 10% CCK-8 (Cell Counting Kit-8, Sigma Aldrich) (10 μl per well) of the total volume was added to the cells and incubated for 1–4 h depending on cell lines (1 h for Hela and Hek293; 3 h for Jurkat T cells; 4 h for PBMCs) before the evaluation of the effect of antibiotics on cell viability. […] Results were visually confirmed under the light microscope. Each treatment was performed in technical repeats. Dose-response curves were plotted, mean ± SEM was shown, and half maximal inhibitory concentration (IC50) values were calculated in GraphPad Prism."}, "Jurkat T cells": {"system": "Jurkat T cells", "experiment": "Cell viability assay (CCK-8), Jurkat T cells", "assay_type": "cell-based, human", "details": "for cell vialibity normalized to Vehicle (DMSO): in % (unit assumed)", "procedure": "as §1"}}, "note": "pIC50: −log10 of the molar value. Where “and” joins values, the source holds several entries; their conditions need not be identical. Identical values can stand only once.", "data": [{"compound": "O=C(N[C@H](CO)[C@H](O)c1ccc([N+](=O)[O-])cc1)C(Cl)Cl", "note": "[Chloramphenicol, chloramphenicol]", "values": [{"measurement": "mitochondrial translation (fold change relative to negative control)", "setting": "[1]; CD4, positive control 309 μM", "result": "0.3672 and 0.3419 and 0.3517 and 0.3014"}, {"measurement": "mitochondrial translation (fold change relative to negative control)", "setting": "[1]; CD8, positive control 309 μM", "result": "0.3783 and 0.3616 and 0.3857 and 0.2719"}, {"measurement": "cell vialibity normalized to Vehicle (DMSO)", "setting": "HeLa cells; Hela 3d, dose 1 μM", "result": "115.472 and 112.907 and 109.149 and 106.395 and 107.336"}, {"measurement": "cell vialibity normalized to Vehicle (DMSO)", "setting": "HeLa cells; Hela 3d, dose 5 μM", "result": "99.7977 and 98.9686 and 95.4348 and 95.1889 and 93.3131"}, {"measurement": "cell vialibity normalized to Vehicle (DMSO)", "setting": "HeLa cells; Hela 3d, dose 10 μM", "result": "85.1565 and 78.1239 and 77.2387 and 77.1403 and 78.8686"}, {"measurement": "cell vialibity normalized to Vehicle (DMSO)", "setting": "HeLa cells; Hela 3d, dose 100 μM", "result": "10.3486 and 10.3064 and 10.2994 and 10.5805"}, {"measurement": "cell vialibity normalized to Vehicle (DMSO)", "setting": "HeLa cells; Hela 5d, dose 1 μM", "result": "101.268 and 103.029 and 103.952 and 106.316 and 104.379"}, {"measurement": "cell vialibity normalized to Vehicle (DMSO)", "setting": "HeLa cells; Hela 5d, dose 5 μM", "result": "96.435 and 103.217 and 108.966 and 107.207 and 102.082"}, {"measurement": "cell vialibity normalized to Vehicle (DMSO)", "setting": "HeLa cells; Hela 5d, dose 10 μM", "result": "98.7408 and 101.357 and 94.3137 and 101.415 and 97.4373"}, {"measurement": "cell vialibity normalized to Vehicle (DMSO)", "setting": "HeLa cells; Hela 5d, dose 50 μM", "result": "38.8993 and 53.367 and 28.3728 and 27.4352 and 29.5718"}, {"measurement": "cell vialibity normalized to Vehicle (DMSO)", "setting": "HeLa cells; Hela 5d, dose 100 μM", "result": "5.6014 and 6.201 and 5.26 and 4.947 and 5.042"}, {"measurement": "pIC50", "setting": "HeLa cells; Homo sapiens, 120 h, HeLa, after 5 days, read-out: IC50 (cell survival)", "result": 4.38}, {"measurement": "pIC50", "setting": "Jurkat T cells; Homo sapiens, 120 h, Jurkat T cells, after 5 days, read-out: IC50 (cell survival)", "result": 4.59}, {"measurement": "cell vialibity normalized to Vehicle (DMSO)", "setting": "Jurkat T cells; Jurkat 3d, dose 1 μM", "result": "91.6279 and 94.5323 and 104.434 and 103.886 and 105.55"}, {"measurement": "cell vialibity normalized to Vehicle (DMSO)", "setting": "Jurkat T cells; Jurkat 3d, dose 5 μM", "result": "74.0465 and 84.1447 and 84.7132 and 88.5271 and 87.2868"}, {"measurement": "cell vialibity normalized to Vehicle (DMSO)", "setting": "Jurkat T cells; Jurkat 3d, dose 10 μM", "result": "63.1628 and 61.0232 and 47.7623 and 47.907 and 61.2196"}, {"measurement": "cell vialibity normalized to Vehicle (DMSO)", "setting": "Jurkat T cells; Jurkat 3d, dose 50 μM", "result": "13.1266 and 12.4444 and 12.0827 and 12.6408 and 12.4548"}, {"measurement": "cell vialibity normalized to Vehicle (DMSO)", "setting": "Jurkat T cells; Jurkat 3d, dose 100 μM", "result": "11.7933 and 11.4419 and 11.2455 and 11.1111 and 11.3282"}, {"measurement": "cell vialibity normalized to Vehicle (DMSO)", "setting": "Jurkat T cells; Jurkat 5d, dose 1 μM", "result": "106.953 and 119.838 and 129.235 and 117.806 and 137.373"}, {"measurement": "cell vialibity normalized to Vehicle (DMSO)", "setting": "Jurkat T cells; Jurkat 5d, dose 5 μM", "result": "116.039 and 104.909 and 120.616 and 122.485 and 146.087"}, {"measurement": "cell vialibity normalized to Vehicle (DMSO)", "setting": "Jurkat T cells; Jurkat 5d, dose 10 μM", "result": "103.365 and 68.172 and 100.846 and 74.0691 and 124.665"}, {"measurement": "cell vialibity normalized to Vehicle (DMSO)", "setting": "Jurkat T cells; Jurkat 5d, dose 50 μM", "result": "10.0745 and 7.603 and 8.334 and 7.062 and 9.025"}, {"measurement": "cell vialibity normalized to Vehicle (DMSO)", "setting": "Jurkat T cells; Jurkat 5d, dose 100 μM", "result": "7.529 and 7.5694 and 7.36 and 6.913 and 8.592"}]}]}
